We go through 13 molecules from PubChem BioAssay (NCI).

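Compound exposure: 48 hours, 5 concentrations, 96-well plates. GI50 is the concentration that inhibits growth by half. TGI denotes the concentration required for complete inhibition of growth.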

Common to all, as to experiment: growth of human tumour cells (NCI), 48 h
The test system of assay [1] is SF-295 CNS.
For assay [2], the system named is UACC-62 melanoma.
The subject of assay [3] is A549 NSCLC.
Assay [4] has as its system T-47D breast.
Assay [5] relates to HOP-92 NSCLC.
Assay [6] deals with MALME-3M melanoma.
In assay [7] the test system is HL-60(TB) leukemia.
Assay [8] concerns OVCAR-3 ovarian.
Assay [9] concerns M14 melanoma.
The test system of assay [10] is CCRF-CEM leukemia.

As to `c1ccc(CCN2CCOCC2)nc1`, the TGI in assay [1], in [2], in [3], in assay [4], in assay [5] and in assay [6] was over 100 µM in each case. The TGI in assay [7], in assay [8], in assay [9] and in assay [10] was over 100 µM throughout.

For `O=C(Nc1cccc([N+](=O)[O-])c1)C(=O)C(C(=O)c1ccccc1F)C1OC(=O)C2C=CC=CC21` (centres undefined), the TGI is over 100 µM in assay [1]; over 100 µM in assay [2]; over 100 µM in assay [3]; over 100 µM in assay [5]; 64 µM in assay [7]; over 100 µM in assay [9]. The molecule further gave a TGI in assay [10] of over 100 µM.

With `N#Cc1c(-c2cccc(Cl)c2)cc(-c2ccc(Cl)cc2)nc1N`, the TGI is 32.5 µM in [1]; 32.7 µM in [2]; 36.1 µM in assay [3]; over 100 µM in assay [4]; 25.3 µM in [5]; 58.4 µM in assay [6]. The TGI in [7] was determined as 77.2 µM; in [8], 63.9 µM; in [9], 36.9 µM; in assay [10] it was 48.4 µM.

As for `CCOC(=O)C(=O)Nc1c(CC)cccc1C(C)CC` (centres undefined), the TGI in [1], in assay [2], in [3], in [5], in assay [6] and in assay [7] was over 100 µM throughout. Also, the TGI in assay [8], in assay [9] and in assay [10] was over 100 µM each time.

With `Cc1nc2c(O)cc3c4c(n(Cc5ccccc5)c3c2nc1C)C(=O)CCC4`, the TGI in [1] is over 100 µM; in assay [2], over 100 µM; in [3], over 100 µM; in assay [5] it was 74 µM; in assay [6] it was over 100 µM; in [7] it was over 100 µM. The TGI in [8] was 83.2 µM; in assay [9], over 100 µM; in assay [10], over 100 µM.

Regarding `O=C1C(c2c(O)[nH]c3ccccc23)=Nc2ccc(Br)cc21`, the TGI in assay [1] was 89.6 µM; in assay [2] it was 54 µM; in assay [3] it was over 100 µM; in assay [4], over 100 µM; in assay [5], 50.4 µM; in [6], over 100 µM. The TGI in assay [7], in [8], in assay [9] and in [10] was over 100 µM in each case.

On to `COc1cc(NC(=O)CSc2nc3ccccc3c(=O)n2CCc2ccccc2)cc(OC)c1OC`, for which the GI50 is 3.21 µM in [1]; 0.587 µM in assay [5]; 2.16 µM in [6]; over 100 µM in [7]; 5.49 µM in assay [9]; over 100 µM in [10]. The TGI in assay [1] was 15.3 µM; in assay [5], 3.44 µM; in [6] it was 5.9 µM; in assay [7], over 100 µM; in assay [9], over 100 µM; in [10] it was over 100 µM.

For `O=C1C(=c2cc3c(c4ccccc24)=NC24CCCCC2C(c2ccccc2)C=C(c2ccccc2)N34)C(=O)c2ccccc21` (centres undefined), the TGI in [1], in assay [3], in assay [4], in assay [5], in assay [6] and in assay [7] was over 100 µM throughout. Further, the TGI in assay [8], in assay [9] and in assay [10] was over 100 µM in each case.

On to `CCCC1=C(C(=O)OCC)C(c2ccccc2OC)C(C#N)=C(N)O1` (centres undefined), for which the GI50 in assay [1] was 84 µM; in [3], over 100 µM; in assay [4] it was 43.4 µM; in assay [5], 37.7 µM; in assay [6], 27.8 µM; in assay [7], 33.7 µM. Also, the GI50 in assay [8] is 67.1 µM; in [9], 34.2 µM; in assay [10] it was 19.4 µM. The TGI in assay [1], in assay [3], in assay [4], in assay [5], in [6] and in assay [7] was over 100 µM in each case. In addition, the values for the TGI in [8], in assay [9] and in assay [10] were over 100 µM, over 100 µM and 42.1 µM, respectively.

Regarding `CNS(=O)(=O)c1ccc2[nH]c(O)c(C3=Nc4ccccc4C3=O)c2c1`, the TGI in assay [1], in assay [2], in [3], in assay [4], in assay [6] and in assay [7] was over 100 µM in each case. Besides, the TGI in assay [8], in assay [9] and in [10] was over 100 µM in each case.

Regarding `COc1cc2c(cc1OC)C1Cc3cc(OC)c(OC)cc3C(C2)O1`, the TGI in [1], in assay [2], in [3], in assay [4], in [5] and in assay [8] was over 100 µM in each case. Also, the TGI in [9] and in assay [10] was over 100 µM in each case.

As to `Nc1cccc2c1C1=NNC(=O)CC1C2` (centres undefined), the TGI in assay [1] was over 100 µM; in assay [2] it was over 100 µM; in [3] it was over 100 µM; in assay [5], 4.46 µM; in assay [6] it was over 100 µM; in [7] it was over 100 µM. In addition, the TGI in assay [8] and in [10] was over 100 µM throughout.

On to `O=C(NCCNc1nccc(-c2c(-c3cccc(O)c3)nc3sccn23)n1)Nc1cccc(C(F)(F)F)c1`, for which the GI50 in [1] was 4.16 µM; in assay [2] it was 1.94 µM; in assay [3], 2.98 µM; in [4], 6.52 µM; in assay [5], 2.19 µM; in [6], 2.09 µM. The GI50 in assay [7] was 2.85 µM; in assay [8], 5.52 µM; in assay [9], 1.79 µM; in [10] it was 3.25 µM. For the same molecule, the TGI in [1] worked out at 29.7 µM; in assay [2], 6.51 µM; in assay [3] it was 8.44 µM; in assay [4] it was 25.6 µM; in [5], 9.38 µM; in assay [6] it was 7.3 µM. Further, the TGI in assay [7] was determined as 6.03 µM; in [8], 22.7 µM; in assay [9] it was 3.39 µM; in assay [10], 13.7 µM.
